# Source: ChEMBL document CHEMBL1151362, “Catharanthus alkaloids. XXXIV. Catharanthamine, a new antitumor bisindole alkaloid from Catharanthus roseus” (1981)
# Activity calls are given as the source filed them. The calls are words filed in the database; no cut-off is given here.
# How the values were obtained:
# KB = assay: Cytotoxicity against human KB cells; type: functional, cell-based
# P388 = assay: In vivo antitumor activity against mouse P388 cells at 1 mg/kg relative to control; type: functional
compound,measurement,setting,value
CC[C@]12C[C@H]3CN(CCc4c([nH]c5ccccc45)[C@@](C(=O)OC)(c4cc5c(cc4OC)N(C)[C@H]4[C@@](O)(C(=O)OC)[C@H](OC(C)=O)[C@]6(CC)C=CCN7CC[C@]54[C@@H]76)[C@@H]3O1)C2 [CATHARANTHAMINE],Activity,KB,Active
same,T/C,P388,176%
